Drawing on PubChem BioAssay (NCI), this text covers TGI and GI50 for 13 compounds.

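Following 48 hours of exposure in 96-well plates, responses at five concentrations were used to interpolate endpoints linearly. Abbreviation: GI50, concentration required for 50% inhibition of growth. At the TGI there is no net growth.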

Test systems include ACHN renal; HCT-15 colon; M14 melanoma; MALME-3M melanoma; NCI-H226 lung; NCI-H522 lung; PC-3 prostate; RPMI-8226 leukemia; SF-539 CNS; SK-OV-3 ovarian; SW-620 colon; LOX IMVI melanoma.
Holding throughout (test): NCI tumour cell line growth inhibition, 48 h

For `CC(=O)N1N=C(c2ccc3ccccc3c2O)CC1c1ccc(N(C)C)cc1` (configuration not stated), the TGI in the assay on ACHN renal, with HCT-15 colon, in the assay with M14 melanoma, with MALME-3M melanoma, with NCI-H226 lung and with NCI-H522 lung was above 100 µM throughout. Also, the TGI in the assay with PC-3 prostate, in the assay with RPMI-8226 leukemia, in the assay with SF-539 CNS, in the assay on SK-OV-3 ovarian and in the assay with SW-620 colon was above 100 µM throughout.
On to `C[C@H]1S[C@H](c2c(F)cccc2F)n2c1nc1ccccc12`, for which the TGI with ACHN renal, in the assay with HCT-15 colon, in the assay on M14 melanoma, in the assay on MALME-3M melanoma, in the assay on NCI-H226 lung and in the assay on PC-3 prostate was above 100 µM throughout. The TGI with RPMI-8226 leukemia, in the assay on SK-OV-3 ovarian and in the assay on SW-620 colon was above 100 µM throughout.
In the case of `CCOC(=O)c1csc(-c2cn(C)c3c2C(=O)C(OC)=CC3=O)n1`, the TGI is above 100 µM with ACHN renal; above 100 µM in the assay with HCT-15 colon; above 100 µM in the assay on LOX IMVI melanoma; 63.3 µM in the assay with M14 melanoma; above 100 µM with NCI-H226 lung; above 100 µM with NCI-H522 lung. Further, the TGI with PC-3 prostate is above 100 µM; in the assay on RPMI-8226 leukemia, above 80.1 µM; in the assay on SF-539 CNS, above 82.9 µM; in the assay with SK-OV-3 ovarian, above 100 µM; in the assay with SW-620 colon it was above 100 µM.
Consider `COC1OC(Cn2cc([N+](=O)[O-])nc2C)C(O)C(O)C1O` (configuration not stated), for which the TGI with ACHN renal, in the assay with HCT-15 colon, in the assay on M14 melanoma, in the assay on MALME-3M melanoma, in the assay on NCI-H522 lung and in the assay on PC-3 prostate was above 100 µM each time. Besides, the TGI in the assay with RPMI-8226 leukemia, in the assay on SK-OV-3 ovarian and in the assay with SW-620 colon was above 100 µM throughout.
For the compound `COc1ccc(NC(=O)NNS(=O)(=O)c2ccc(C)cc2)cc1`, the TGI with ACHN renal, with HCT-15 colon, in the assay on M14 melanoma, in the assay on MALME-3M melanoma, with NCI-H226 lung and in the assay on NCI-H522 lung was above 100 µM in each case. In addition, the TGI with PC-3 prostate, in the assay with RPMI-8226 leukemia, in the assay with SF-539 CNS, with SK-OV-3 ovarian and with SW-620 colon was above 100 µM throughout.
Consider `COc1cccc(CCn2c(N)c(C#N)c3ccc([N+](=O)[O-])cc3c2=O)c1`, for which the TGI in the assay on ACHN renal is above 46.4 µM; with HCT-15 colon, above 31.6 µM; with LOX IMVI melanoma, above 46.4 µM; in the assay on M14 melanoma, above 31.6 µM; in the assay on MALME-3M melanoma, above 31.6 µM; with NCI-H226 lung, above 31.6 µM. For the same compound, the TGI with PC-3 prostate is above 46.4 µM; with SK-OV-3 ovarian, above 31.6 µM; in the assay with SW-620 colon, above 100 µM.
On to `CN1C(=O)N(c2nc3ccccc3[nH]2)C(C)(C)C1=O`, for which the TGI in the assay with ACHN renal, in the assay with HCT-15 colon, in the assay with LOX IMVI melanoma, with M14 melanoma, with MALME-3M melanoma and in the assay with NCI-H226 lung was above 100 µM each time. Further, the TGI in the assay with NCI-H522 lung, with RPMI-8226 leukemia, with SF-539 CNS, in the assay with SK-OV-3 ovarian and with SW-620 colon was above 100 µM each time.
Consider `Clc1ccc(N2N=C(c3cccc(Nc4ccncc4)c3)CC2c2ccc(Br)cc2)cc1` (configuration not stated), for which the GI50 with ACHN renal is 1.7 µM; in the assay on PC-3 prostate, 1.57 µM; with SF-539 CNS it was 1.74 µM; in the assay with SK-OV-3 ovarian it was 2 µM; with SW-620 colon it was 1.73 µM. For the same compound, the TGI was 3.06 µM in the assay on ACHN renal; 3.19 µM with PC-3 prostate; 3.26 µM in the assay with SF-539 CNS; 3.92 µM in the assay with SK-OV-3 ovarian; 3.51 µM in the assay on SW-620 colon.
As to `COC1(OC)C2C=CC1C([C@](C)(N)CO)C2` (some centres not stated), the TGI with ACHN renal, in the assay on M14 melanoma, with MALME-3M melanoma, in the assay on NCI-H226 lung, in the assay with NCI-H522 lung and with PC-3 prostate was above 100 µM throughout. In addition, the TGI in the assay with SF-539 CNS, in the assay on SK-OV-3 ovarian and with SW-620 colon was above 100 µM throughout.
On to `CC(C)(C)OC(=O)C1/C(=C/CBr)CN1C(=O)OC(C)(C)C` (configuration not stated), for which the TGI in the assay on ACHN renal worked out at 33 µM; in the assay with HCT-15 colon, 23.3 µM; in the assay with LOX IMVI melanoma it was 11.4 µM; with M14 melanoma it was 41.9 µM; with MALME-3M melanoma, 35.4 µM; in the assay on PC-3 prostate it was 28.1 µM. In addition, the TGI in the assay on RPMI-8226 leukemia was 18.1 µM; with SF-539 CNS it was 35.9 µM; in the assay with SK-OV-3 ovarian it was 38.2 µM; in the assay with SW-620 colon it was 19.4 µM.
In the case of `Cc1cnc2[nH]c(-c3ccc(Cl)cc3)cc(=O)c2c1`, the TGI is above 100 µM in the assay with ACHN renal; above 40.8 µM with HCT-15 colon; above 100 µM with LOX IMVI melanoma; above 100 µM with M14 melanoma; above 100 µM in the assay with MALME-3M melanoma; above 100 µM in the assay with NCI-H226 lung. The TGI with NCI-H522 lung was above 100 µM; in the assay on RPMI-8226 leukemia it was above 60.3 µM; in the assay on SF-539 CNS, 6.81 µM; with SK-OV-3 ovarian, above 100 µM; in the assay on SW-620 colon it was above 100 µM.
For `COc1cc([C@@H]2c3cc4c(cc3[C@@H](NC(=O)NO)[C@H]3COC(=O)[C@H]23)OCO4)cc(OC)c1O`, the results for the GI50 in the assay on ACHN renal and in the assay with M14 melanoma were 6.04 µM and 37 µM, respectively. Besides, the TGI in the assay on HCT-15 colon, with LOX IMVI melanoma, in the assay with M14 melanoma, in the assay with NCI-H522 lung, with PC-3 prostate and in the assay with RPMI-8226 leukemia was above 100 µM each time. Besides, the TGI in the assay on SF-539 CNS and in the assay with SW-620 colon was above 100 µM in each case.
For `CCC(=O)CCC1=Nc2nnc(CCCCc3nnc4n3C(=O)C(CCC(=O)CC)=N4)n2C1=O`, the TGI in the assay on ACHN renal, in the assay with HCT-15 colon, in the assay on LOX IMVI melanoma, with M14 melanoma, in the assay on MALME-3M melanoma and in the assay on NCI-H226 lung was above 100 µM each time. The TGI in the assay with NCI-H522 lung, with RPMI-8226 leukemia, in the assay with SF-539 CNS, in the assay on SK-OV-3 ovarian and with SW-620 colon was above 100 µM in each case.
